We go through 19 compounds from PMC10777855, “Pharmacological validation of dihydrofolate reductase as a drug target in Mycobacterium abscessus” (Antimicrobial Agents and Chemotherapy, 2023).

What is called IC50 is the midpoint of a concentration-inhibition curve.

This assay addresses T1, M. abscessus DHFR (recombinant) (Mycobacteroides abscessus, UniProt B1MD46).
T1 construct: gene MAB_3090c; E. coli codon-optimised gene in pET28a (NcoI/XhoI), N-terminal His6-tag, expressed in E. coli BL21(DE3), Ni-NTA purified; tag removal not mentioned
T1 sequence (B1MD46 1-163): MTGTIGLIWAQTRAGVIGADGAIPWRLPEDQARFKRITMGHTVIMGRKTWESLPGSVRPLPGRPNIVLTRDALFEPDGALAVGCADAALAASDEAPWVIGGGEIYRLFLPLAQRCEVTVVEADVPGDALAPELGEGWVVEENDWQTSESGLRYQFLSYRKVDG
Put plainly: NADPH absorbance decrease at […] nm (DHFR kit CS0340). In kind it is biochemical.

Read-outs that look alike come from different tables or passages of the source.

As for `COc1cc(Cc2cnc(N)nc2N)cc(OC)c1Br` [Brodimoprim], the IC50 (read-out: IC50 (μM) ^ b) was found to be 1.7 µM.

`COc1cc(Cc2cnc(N)nc2N)c2c(c1OC)OC(C1CC1)C=C2` (stereo not shown) [Iclaprim]: the IC50 (read-out: IC50 (μM) ^ b) was 0.6 µM.

On to `CN(Cc1cnc2nc(N)nc(N)c2n1)c1ccc(C(=O)N[C@@H](CCC(=O)O)C(=O)O)cc1` [Methotrexate], for which, where the note is “read-out: IC50 (μM) ^ b”, the concentration for half-maximal inhibition (IC50) is 0.016 µM.

As for `N#Cc1ccc(Cn2ccc3c4c(N)nc(N)nc4ccc32)cc1` [PQD-1], the IC50 (read-out: IC50 (μM) ^ b) turned out to be 0.0025 µM.

Turning to `N#Cc1cccc(Cn2ccc3c4c(N)nc(N)nc4ccc32)c1` [PQD-2], the IC50 (read-out: IC50 ^ b) was 0.0034 µM.

Consider `COC(=O)c1ccc(Cn2ccc3c4c(N)nc(N)nc4ccc32)cc1` [PQD-3], for which the 50% inhibitory concentration (IC50) (read-out: IC50 ^ b) came to 0.015 µM.

Take `Cc1cccc(Cn2ccc3c4c(N)nc(N)nc4ccc32)n1` [PQD-4]: for the setting “read-out: IC50 ^ b”, the half-inhibitory concentration (IC50) worked out at 0.015 µM.

With `N#Cc1ccccc1Cn1ccc2c3c(N)nc(N)nc3ccc21` [PQD-5], the half-maximal inhibitory concentration (IC50) (read-out: IC50 ^ b) came out at 0.016 µM.

On to `Cc1ccccc1Cn1ccc2c3c(N)nc(N)nc3ccc21` [PQD-6], for which, where the note is “read-out: IC50 ^ b”, the half-maximal inhibitory concentration (IC50) is 0.015 µM.

`Nc1nc(N)c2c(ccc3c2ccn3Cc2ccc3ccccc3c2)n1` [PQD-7]: under “read-out: IC50 ^ b”, the IC50 is 0.015 µM.

As for `Nc1nc(N)c2c(ccc3c2ccn3Cc2ccc(F)cc2)n1` [PQD-8], the half-maximal inhibitory concentration (IC50) (read-out: IC50 ^ b) came out at 0.02 µM.

In the case of `Nc1nc(N)c2c(ccc3c2ccn3Cc2cccc(Cl)c2)n1` [PQD-9], under “read-out: IC50 ^ b”, the IC50 was found to be 0.03 µM.

With `CC(C)Nc1nc(N)c2c(ccc3c2ccn3Cc2ccc(C(C)C)cc2)n1` [PQD-10], under “read-out: IC50 ^ b”, the IC50 is 4.1 µM.

In the case of `C#CCC(Cc1cnc2nc(N)nc(N)c2n1)c1ccc(C(=O)N[C@@H](CCC(=O)O)C(=O)O)cc1` (stereo partly shown) [Pralatrexate], where the note is “read-out: IC50 (μM) ^ b”, the half-maximal inhibitory concentration (IC50) stood at 0.21 µM.

Turning to `CCc1nc(N)nc(N)c1-c1ccc(Cl)cc1` [Pyrimethamine], the IC50 (read-out: IC50 (μM) ^ b) came out at 4.7 µM.

As for `COCCOc1c(OC)cc(Cc2cnc(N)nc2N)cc1OC` [Tetroxoprim], the IC50 (read-out: IC50 (μM) ^ b) worked out at 20 µM.

As to `COc1cc(Cc2cnc(N)nc2N)cc(OC)c1OC` [Trimethoprim], the 50% inhibitory concentration (IC50) (read-out: IC50 (μM) ^ b) is 25 µM.

For the compound `COc1cc(NCc2ccc3nc(N)nc(N)c3c2C)cc(OC)c1OC` [Trimetrexate], for the setting “read-out: IC50 (μM) ^ b”, the IC50 is 0.005 µM.

For `CC1(C)N=C(N)N=C(N)N1OCCCOc1cc(Cl)c(Cl)cc1Cl` [WR99210], for the setting “read-out: IC50 (μM) ^ b”, the IC50 is 0.016 µM.
